Experimental findings from patent US20170071208A1, “COMPOSITIONS FOR MOSQUITO CONTROL AND USES OF SAME” (Forrest Innovations Ltd., priority 2014, published 2017) are described below.

Assay type in all cases: in vivo, Aedes aegypti
Data set [1] relates to Ae. aegypti mosquitoes (RJ strain). Description: dsRNA treatment of larvae (soaking, or soaking plus feeding), then pyrethroid adulticide bottle bioassay of adult females. As for the experimental part: (§1) Third instar larvae were treated (in groups of 100 larvae) in a final volume of 3 mL of dsRNA solution in autoclaved water (0.5 μg/μL for sodium channel (AAEL008297), PgP (AAEL010379) and Ago3 (AAEL007823) dsRNA, or 0.1 μg/μL for CYP9J26 (JF924909.1). The control group was kept in 3 ml sterile water only. Larvae were soaked in the dsRNA solutions for 24 hr at 27° C., and then transferred into new containers (300 larvae/1500 mL of chlorine-free tap water), which were also maintained at 27° C., and were provided 6 mg/100 mL lab dog/cat diet (Purina Mills) suspended in water as a source of food on a daily basis. As pupae developed, they were transferred to individual vials to await eclosion and sex sorting. For bioassays purpose only females up to five days old were used. See Flowchart 1, FIG. 1 for detailed explanation of this experiment.
After soaking in the dsRNA solutions for 24 hr at 27° C., the larvae were transferred into new containers (300 larvae/1500 mL of chlorine-free tap water), and were provided agarose cubes containing 300 μg of dsRNA once a day for a total of four days. The larvae were reared until adult stage. For bioassays purpose only females up to five days old are used. See Flowchart 2, FIG. 2 for detailed explanation of this experiment.
Bottles were prepared following the Brogdon and McAllister (1998) protocol [Brogdon and McAllister (1998) Emerg Infect Dis 4:605-613]. Fifteen-twenty non-blood-fed females from each site were introduced in 250 mL glass bottles impregnated with different concentrations of deltamethrin (Sigma-Aldrich) in 1 ml acetone. Each test consisted of four impregnated bottles and one control bottle. The control bottle contained acetone with no insecticide. At least three tests were conducted for each insecticide and population. Immediately prior to use, all insecticide solutions were prepared fresh from stock solutions. At 15, 30 and 45 min intervals, the number of live and dead mosquitoes in each bottle was recorded. The mortality criteria included mosquitoes with difficulties flying or standing on the bottle's surface. Mosquitoes that survived the appropriate dose for insecticide were considered to be resistant [Brogdon and McAllister (1998), supra].
Cubes of dsRNA-containing mosquito food were prepared as follows: First, 300 μg of dsRNA were mixed with 30 μg of Polyethylenimine 25 kD linear (Polysciences) in 200 μL of sterile water. Then, a suspension of ground mosquito larval food (6 grams/100 mL) was prepared with 2% agarose (Fisher Scientific). The food/agarose mixture was heated to 55° C. and 200 μL of the mixture was then transferred to the tubes containing 200 μL of dsRNA+PEI or water only (control). The mixture was then allowed to solidify into a gel. The solidified gel containing both the food and dsRNA was cut into small pieces (approximately 1 mm thick) using a razor blade, which were then used to feed mosquito larvae in water.

In data set [2] the test system is sodium channel (AAEL008297) mRNA. Description: qPCR analysis of sodium channel mRNA expression after dsRNA treatment. The procedure: as §1
Total RNA was extracted from groups of five Ae. aegypti fourth instar larvae and early adult male/female Ae. aegypti, using TRIzol (Invitrogen, Carlsbad, Calif., USA) according to the manufacturer's instructions. RNA was treated with amplification grade DNase I (Invitrogen) and 1 μg was used to synthesize cDNA using a First Strand cDNA Synthesis kit (Invitrogen). PCR products were purified using a QIAquick PCR purification kit (Qiagen). The MEGAscript RNAi kit (Ambion) was then used for in vitro transcription and purification of dsRNAs. See Flowchart 4, FIG. 4 for detailed explanation production off dsRNA.
Approximately 1000 ng first-strand cDNA obtained as described previously was used as template. The qPCR reactions were performed using SYBR® Green PCR Master Mix (Applied Biosystems) following the manufacturer's instructions. […] Raw quantification cycle (Cq) values normalized against those of the tubulin and S7 standards were then used to calculate the relative expression levels in samples using the 2^−ΔΔct method [Livak & Schmittgen, (2001) Methods. […]
(In qPCR the cycle at which signal appears reflects the starting amount.)

For data set [3], the system named is Ae. aegypti Rockefeller strain. Description: Oviposition assay after larval dsRNA soaking plus feeding. Particulars: larvae soaked 24 h in 0.5 μg/μL dsRNA, fed twice with agarose plug containing dsRNA; 15 engorged females per cage; vs water control. The procedure:
FIG. 12 is a flowchart illustration depicting introduction of dsRNA into mosquito larvae via soaking with different doses of “naked” dsRNA plus additional larvae feeding with food-containing dsRNA. Step a) 100 larvae from A. aegypti Rockefeller strain (3rd instar) were soaked for 24 hours with the respective dsRNAs (concentration range from 0.02-0.5 μg/μL) or only in water and were then fed 2 times with food plus agarose 2% containing dsRNA until they reach adult stage (Step b). Step c) The adults arising were allowed to copulate for 3-5 days. Step d) mosquitoes were fed with defibrinated sheep blood. Step e) after blood feeding 15 fully-engorged females were transferred into 3 small cages to be assayed for oviposition. Step f) the total number of laid eggs and the percentage of hatched eggs were counted. FIGS. 13A-B are graphs illustrating larvae from Ae. aegypti Rockefeller strain (3rd instar) soaked for 24 hours in 0.5 μg/μL of Aubergine (Aub) or Argonaute-3 (Ago) dsRNAs or water only. […] (FIG. 13A) The total number of laid eggs and the percentage of hatched eggs were counted (FIG. 13B). […]
(§2) Five days after the blood meal, an ovipositon cup was place inside each cage containing 15 females to allow the females to lay their eggs. […] The number of eggs laid was counted and used to check the viability and egg hatching rate.

Data set [4] has as its system Ae. aegypti Rockefeller strain. Description: Egg hatching rate after larval dsRNA soaking plus feeding. The conditions noted are these: larvae soaked 24 h in 0.5 μg/μL dsRNA, fed twice with agarose plug containing dsRNA; vs water control. As for the experimental part: FIG. 12 is a flowchart illustration depicting introduction of dsRNA into mosquito larvae via soaking with different doses of “naked” dsRNA plus additional larvae feeding with food-containing dsRNA. Step a) 100 larvae from A. aegypti Rockefeller strain (3rd instar) were soaked for 24 hours with the respective dsRNAs (concentration range from 0.02-0.5 μg/μL) or only in water and were then fed 2 times with food plus agarose 2% containing dsRNA until they reach adult stage (Step b). Step c) The adults arising were allowed to copulate for 3-5 days. Step d) mosquitoes were fed with defibrinated sheep blood. Step e) after blood feeding 15 fully-engorged females were transferred into 3 small cages to be assayed for oviposition. Step f) the total number of laid eggs and the percentage of hatched eggs were counted. […] (FIG. 13A) The total number of laid eggs and the percentage of hatched eggs were counted (FIG. 13B). […]
as §2
To check the viability of the eggs the oviposition paper were kept to dry and embrionate for a period minimum of 5 days. […] The hatching rate (HR) for each treatment were calculated as follow: HR=total number of hatched larvae/total number of eggs oviposited). […]

The subject of data set [5] is P-glycoprotein (AAEL010379) mRNA. Description: qPCR analysis of P-glycoprotein mRNA expression after dsRNA treatment. The conditions noted are these: vs water. As for the experimental part: as §1
Total RNA was extracted from groups of five Ae. aegypti fourth instar larvae and early adult male/female Ae. aegypti, using TRIzol (Invitrogen, Carlsbad, Calif., USA) according to the manufacturer's instructions. […]
Approximately 1000 ng first-strand cDNA obtained as described previously was used as template. […] Raw quantification cycle (Cq) values normalized against those of the tubulin and S7 standards were then used to calculate the relative expression levels in samples using the 2^−ΔΔct method [Livak & Schmittgen, (2001) Methods. […]

For “sodium channel dsRNA: dsRNA targeting Ae. aegypti sodium channel (AAEL008297), SEQ ID NO: 1825”, the “susceptibility of adult mosquitoes to deltamethrin (mortality rate)” value in data set [1] (3rd instar larvae soaked 24 h in 0.5 μg/μL naked dsRNA vs water, adult females exposed to deltamethrin 0.5 μg/bottle) is recorded as “increased susceptibility”; in data set [1] (3rd instar larvae soaked 24 h in 0.5 μg/μL naked dsRNA vs water, adult females exposed to deltamethrin 0.5 μg/bottle, listed as dsRNA against sodium channel), “increased substantially the susceptibility”; in data set [1] (larvae soaked 24 h in 0.5 μg/μL dsRNA, then fed 4 times with food-containing dsRNA, adult females, deltamethrin 0.5 μg/bottle) it was “increased susceptibility”; in data set [1] (larvae soaked 24 h in 0.5 μg/μL dsRNA, then fed 4 times with food-containing dsRNA, adult females, deltamethrin 0.5 μg/bottle, listed as dsRNA against sodium channel), “increased the susceptibility”. The “sodium channel mRNA expression level” value is “decreased expression” in data set [2] (adult female mosquitoes soaked as larvae, collected before deltamethrin treatment, vs water) and “striking decrease” in data set [2] (dead female mosquitoes collected after exposure to deltamethrin, compared to water-treated mosquitoes). Also, the “sodium channel mRNA levels” value in data set [2] (larvae soaked 24 h in dsRNA, 24 and 48 hours after the end of dsRNA treatment, vs water) is “decreased mRNA levels”.

B1: Cytochrome p450 (CYP9J26): dsRNA targeting Cytochrome p450 (CYP9J26, JF924909.1), SEQ ID NO: 1824 (nucleic acid)
chain: CTTCAACGACTTCGTCCGATCAATTTACAACAAATATCCTGGAGTGAAGGTTTTCGGAATGTTCGAGACGATCACGCCGTTCTTCGTGATTCGCGATCCGGAGTTGATCAAGCAGATCGGCATCAAGGATTTCGATCACTTCGTTGACCACCGTCCGACGTTCGGACTGGACGATGAAACGGCGGAGCATCCGAAGGCGCTGTTCCGCAAGACGCTGTTCTCGATGACCGGTCAACGGTGGAAGGAGATGCGCGCTACGCTGAGTCCGGCTTTTACCGGCAGTAAGATGCGACAGATGTTCTCGCTGATGAGCGAATGCTGCGACGAAATGATGAAGCACTACCTGGACAAGGCGAAGGGCACGGGAAGGGTGGAAGTCGAAATGAAGGACTTGCTGAGTCGAATCACTATCAATGTGATTGCGTCGTGTGCTTTTGGAATCAAGGTGGAC
modifications: double stranded RNA
For B1, the “susceptibility of adult mosquitoes to deltamethrin (mortality rate)” value in data set [1] (larvae soaked 24 h in 0.1 μg/μL dsRNA, then fed 4 times with food-containing dsRNA, adult females, deltamethrin 0.5 μg/bottle, first 15 minutes of contact) is on record as “more sensitive”; in data set [1] (larvae soaked 24 h in 0.1 μg/μL dsRNA, then fed 4 times with food-containing dsRNA, adult females, deltamethrin 0.5 μg/bottle, first 15 minutes of contact, listed as CYP9J29 dsRNA), “affects the susceptibility”.

B2: Aub: dsRNA targeting PIWI protein Aub (AAEL007698), SEQ ID NO: 1858 (nucleic acid)
chain: TCTTCTCCACCACAGCCAATGGCGTACAGGCTGGAGAACAGGCAGATTGGACGGCCCATTTCCGTAACAATCCCATGTTCGCTACGGTGCGGTTGACGCGATGGTATTTGATCGTACCGAACCGGGCTTCACGTGAGGCCAACGATTTCCTGGGCTGCATGATTCAAGCCGCACGCGGTATGCGATTTGAGATTAGTAACTGTGAGGTGGTCACCATTCCGGACGACAACCCAGGTACCTATGTGCGAACATTGGACAATCTGCTGAATAAGGACCCGCAGTTGGTGATGTGCGTCGTGACCAACAATAAGGCCGATCGGTACACCGCCATCAAGAAGAAATGTTGCGTTGATCGTGCCATCCCAACGCAAGTCATGGTACAAAAAACGATCACACCAAAGGGTGGTAATGTACGAACACTCATGTCCGTG
modifications: double stranded RNA
Take B2: the “oviposition rate (total number of laid eggs)” value in data set [3] is listed as “no difference”. For the same molecule, the “number of hatched eggs (hatchability)” value in data set [4] is reported as 50%.

B3: PgP: dsRNA targeting P-glycoprotein (AAEL010379), SEQ ID NO: 1822 (nucleic acid)
chain: TGGAAAAGTTGACATTGACGGGATCACGACAACTGATTTCCAGCTTGGCCGCATACGTTCACAAATGGGTCTCGTATCGCAAGAACCTGTTCTGTTTGATCGCACCATCGCGGAAAATATTGCTTATGGTGACAACACTCGCGAGATAAGCATGCCGGAGATAATCGAGGCATCCAAAATGGCAAACATTCACGAATTCATCGTCAATCTACCGAAGGGGTATGACACTAGCCTAGGAACCAAAGGAGCTCAATTGTCTGGTGGCCAAAAGCAACGTATTGCTATAGCTCGTGCTTTGGTTAGAAATCCACGAATCC
modifications: double stranded RNA
As to B3, the “PgP mRNA expression” value in data set [5] (adult mosquitoes soaked with dsRNA as larvae) is “reached normal levels”. Further, the “PgP mRNA levels” value in data set [5] (larvae soaked 24 h in dsRNA, 24 and 48 hours after the end of dsRNA treatment) is reported as “decreased mRNA levels”.
